These results are taken from patent US5710129A, “Inhibitors of SH2-mediated processes” (Ariad Pharmaceuticals, Inc., priority 1995, dated 1998).

The structures appear in SMILES notation. Several values for one entry are separate records, joined by “and”; a condition that tells them apart may be missing. Identical values can stand only once. Like-named read-outs stand apart in the source and are kept apart here. Square brackets hold non-standard residues; d marks the D form. Peptide text beside a SMILES is read from it. * marks the point of attachment. Tyr(3,5-(NO2)2) = N[C@@H](Cc1cc([N+](=O)[O-])c(O)c([N+](=O)[O-])c1)C(=O)O; Propanoyl(3,3-Ph2) = O=C(CC(c1ccccc1)c1ccccc1)*; Acetyl(1-naphthyl) = O=C(Cc1cccc2ccccc12)*; Acetyl(2-naphthyl) = O=C(Cc1ccc2ccccc2c1)*; 1Nal = N[C@@H](Cc1cccc2ccccc12)C(=O)O; Fmoc = O=C(OCC1c2ccccc2-c2ccccc21)*; Hydrocinnamoyl = O=C(CCc1ccccc1)*; PhAc = O=C(Cc1ccccc1)* Bounds are passed on as bounds.

In one assay the target is T1, pp72^syk (163-265) (Homo sapiens, UniProt P43405).
T1 construct: Assays were run in HBS using 270 nM pp72^syk (163-265)
The assay can be described thus: C-Syk competitive binding assay, surface plasmon resonance (BIAcore). The settings on record: 270 nM protein; hemiphosphorylated γ-chain ITAM of human FcεRI as ligand; read-out: CSyk IC-50. The procedure:
(§1) Binding was measured by competition using surface plasmon resonance (Malmqvist, M. (1993) Current Opinions in Immunology 5, 282-286) as implemented in the BIAcore Biosensor (Pharmacia Biosensor, Piscataway, N.J.). […] Results were compared to binding measured in the absence of competitor and expressed as percent inhibition. IC50values reflect the concentration of inhibitor required to reduce binding by 50%. Specifics of individual assays are described below. All asssays were run in HEPES Buffered Saline (HBS) composed of 10 mM HEPES (pH 7.4)/150 mM NaCl/3.4 mM EDTA/0.05% Surfactant P20at 25° C. and a flow rate of 5 uL min^-1.
A pp72^syk peptide ligand corresponding to a hemiphosphorylated γ-chain ITAM of human Fcε RI [DGVY(PO4)TGLSTRNQETYETLK] was synthesized as part of a larger peptide [Ac-CGGDGVY(PO4)TGLSTRNQETYETLK-NH2 ] and used to generate a C-Syk-sensitive biosensor surface as described above for tandem syk. Assays were run in HBS using 270 nM pp72^syk (163-265)±test inhibitor.
A general note: SPR reads the build-up and loss of mass on a sensor chip optically.

In another assay the target is T2, pp72^syk (1-265) (Homo sapiens, UniProt P43405).
T2 construct: Assays were run in HBS using 20 nM pp72^syk (1-265)
The assay can be described thus: Tandem Syk competitive binding assay, surface plasmon resonance (BIAcore). As to conditions: for IC50: 20 nM protein, γ-chain ITAM of human FcεRI as ligand, read-out: N,CSyk IC-50. The procedure:
as §1
A pp72^syk peptide ligand corresponding to the γ-chain ITAM of human Fcε RI [DGVY(PO4)TGLSTRNQETY(PO4)ETLK] [SEQ ID NO:18] was synthesized as part of a larger peptide [Ac-CGGDGVY(PO4)TGLSTRNQETY-(PO4)ETLK-NH2] [SEQ ID NO:19] and used to generate a Syk-sensitive biosensor surface. Specifically, a Biosensor Chip CM5was activated with 200 mM ethyl-3-(3-dimethylaminopropyl)-carbodiimide hydrochloride (EDC)/50 mM N-hydroxysuccinimide (NHS) to generate a surface reactive to primary amines; treated with ethylenediamine to generate a surface rich in primary amines; activated with m-maleimidobenzoyl-N-hydroxysuccinimide ester (sulfo-MBS; 50 mM in 25 mM NaHCO3) to generate a surface reactive to free thiols; and the ITAM peptide immobilized through the N-terminal cysteine. Unreacted sites were blocked with β-mercaptoethanol and the chip cleaned of noncovalently bound peptide using 6M guanidine hydrochloride. Assays were run in HBS using 20 nM pp72^syk (1-265)±test inhibitor.

A further assay concerns the target T3, pp70^ZAP (1-259) (Homo sapiens, UniProt P43403).
T3 sequence (P43403 1-259): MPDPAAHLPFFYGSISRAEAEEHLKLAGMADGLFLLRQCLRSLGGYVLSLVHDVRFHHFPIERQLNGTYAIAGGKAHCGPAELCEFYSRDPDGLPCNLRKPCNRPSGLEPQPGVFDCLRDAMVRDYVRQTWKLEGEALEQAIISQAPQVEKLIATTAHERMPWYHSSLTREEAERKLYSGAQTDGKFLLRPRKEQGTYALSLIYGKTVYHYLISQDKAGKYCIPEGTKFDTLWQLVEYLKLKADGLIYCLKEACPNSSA
The assay can be described thus: Tandem ZAP competitive binding assay, surface plasmon resonance (BIAcore). The settings on record: for IC50: read-out: N,CZap IC-50. The procedure: as §1
A pp70^ZAP peptide ligand corresponding to the .zeta.-chain ITAM-1 of the human T-cell receptor [NQLY(PO4)NELNIGRREEY(PO4)DVLD] [SEQ ID NO:20] was synthesized as a part of a larger peptide [Ac-KGGNQLY(PO4)NELNIGRREEY-(PO4)DVLD-NH2 ] [SEQ ID NO:21] and used to generate a ZAP-sensitive biosensor surface. Specifically, a Biosensor Chip CM5was activated with 200 mM EDC/50 mM NHS to generate a surface reactive to primary amines and the ITAM peptide immobilized through the N-terminal lysine. Unreacted sites were blocked with ethanolamine (1M in water) and the chip cleaned of non-covalently bound peptide using 6M guanidine hydrochloride. Assays were run in HBS using 10 nM pp70^ZAP (1-259)±test inhibitor. (The designation "b22" indicates use of a corresponding γ-chain ITAM for the .zeta.-chain ITAM.)

The target of a further assay is T4, pp60^src (144-251) (Homo sapiens, UniProt P12931).
T4 construct: Assays were run in HBS using 270 nM pp60^src (144-251)
Nature of the assay: Src competitive binding assay, surface plasmon resonance (BIAcore). As to conditions: 270 nM protein; hamster Middle-T antigen phosphopeptide as ligand; read-out: Src IC-50. The procedure: as §1
A p60^src peptide ligand corresponding to the hamster Middle-T antigen [QY(PO4)EEIPI] [SEQ ID NO:22] was synthesized as a part of a larger peptide [Ac-KGGQY(PO4)EEIPI-NH2 ] [SEQ ID NO:23] and used to generate a src-sensitive biosensor surface as described above for tandem ZAP. Assays were run in HBS using 270 nM pp60^src (144-251)±test inhibitor.

Setting [1] is: 10 nM protein, ζ-chain ITAM-1 of human T-cell receptor as ligand.

T4 sequence (P12931 144-251): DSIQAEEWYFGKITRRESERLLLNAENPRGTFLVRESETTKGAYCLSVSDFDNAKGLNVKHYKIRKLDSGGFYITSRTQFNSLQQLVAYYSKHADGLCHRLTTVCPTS

With `CC(C)C[C@H](NC(=O)[C@@H](NC(=O)[C@H](CCC(=O)O)NC(=O)[C@H](Cc1cc([N+](=O)[O-])c(O)c([N+](=O)[O-])c1)NC(=O)OCC1c2ccccc2-c2ccccc21)[C@@H](C)O)C(N)=O` [ETLNH2] (Fmoc-[Tyr(3,5-(NO2)2)]ETL-NH2), the IC50 at pp72^syk (163-265) was 30 µM; at pp72^syk (1-265) it was 80 µM and 81 µM; on pp70^ZAP (1-259) (setting [1]) it was 350 µM; on pp70^ZAP (1-259) (b22: corresponding γ-chain ITAM used for the ζ-chain ITAM) it was 20 µM; on pp60^src (144-251), more than 1000 µM.

Consider `CC(=O)N[C@@H](Cc1cccc2ccccc12)C(=O)N[C@@H](Cc1cc([N+](=O)[O-])c(O)c([N+](=O)[O-])c1)C(=O)N[C@@H](CCC(=O)O)C(=O)N[C@H](C(=O)N[C@@H](CC(C)C)C(N)=O)[C@@H](C)O` (Ac-[1Nal][Tyr(3,5-(NO2)2)]ETL-NH2), for which the IC50 was 200 µM on pp72^syk (163-265), 800 µM at pp72^syk (1-265), more than 100 µM on pp70^ZAP (1-259) (setting [1]) and more than 500 µM at pp60^src (144-251).

Consider `CC(C)C[C@H](NC(=O)[C@@H](NC(=O)[C@H](CCC(=O)O)NC(=O)[C@H](Cc1cc([N+](=O)[O-])c(O)c([N+](=O)[O-])c1)NC(=O)Cc1cccc2ccccc12)[C@@H](C)O)C(N)=O` ({Acetyl(1-naphthyl)}-[Tyr(3,5-(NO2)2)]ETL-NH2), for which the IC50 is 24 µM at pp72^syk (163-265), 100 µM on pp72^syk (1-265), more than 100 µM on pp70^ZAP (1-259) (setting [1]) and more than 1000 µM at pp60^src (144-251).

With `CC(C)C[C@H](NC(=O)[C@@H](NC(=O)[C@H](CCC(=O)O)NC(=O)[C@H](Cc1cc([N+](=O)[O-])c(O)c([N+](=O)[O-])c1)NC(=O)Cc1ccccc1)[C@@H](C)O)C(N)=O` (PhAc-[Tyr(3,5-(NO2)2)]ETL-NH2), the IC50 was 70 µM on pp72^syk (163-265), more than 1000 µM at pp72^syk (1-265), more than 1000 µM on pp70^ZAP (1-259) (setting [1]) and more than 1000 µM on pp60^src (144-251).

For `CC(C)C[C@H](NC(=O)[C@@H](NC(=O)[C@H](CCC(=O)O)NC(=O)[C@H](Cc1cc([N+](=O)[O-])c(O)c([N+](=O)[O-])c1)NC(=O)CC(c1ccccc1)c1ccccc1)[C@@H](C)O)C(N)=O` ({Propanoyl(3,3-Ph2)}-[Tyr(3,5-(NO2)2)]ETL-NH2), the IC50 at pp72^syk (163-265) was 15 µM; on pp72^syk (1-265) it was 100 µM; at pp60^src (144-251), more than 1000 µM. The “N,CZap inhibition” value at pp70^ZAP (1-259) (@ 1000 (μM)) is “ni”.

For the compound `CC(C)C[C@H](NC(=O)[C@@H](NC(=O)[C@H](CCC(=O)O)NC(=O)[C@H](Cc1cc([N+](=O)[O-])c(O)c([N+](=O)[O-])c1)NC(=O)Cc1ccc2ccccc2c1)[C@@H](C)O)C(N)=O` ({Acetyl(2-naphthyl)}-[Tyr(3,5-(NO2)2)]ETL-NH2), the IC50 at pp72^syk (163-265) is 20 µM; on pp70^ZAP (1-259) (setting [1]), more than 100 µM; on pp60^src (144-251), 500 µM. Moreover, on pp72^syk (1-265) (@ 50 (μM)), the “N,CSyk percent inhibition” value came out at 30%.

For `CC(C)C[C@H](NC(=O)[C@@H](NC(=O)[C@H](CCC(=O)O)NC(=O)[C@H](Cc1cc([N+](=O)[O-])c(O)c([N+](=O)[O-])c1)NC(=O)CCc1ccccc1)[C@@H](C)O)C(N)=O` (Hydrocinnamoyl-[Tyr(3,5-(NO2)2)]ETL-NH2), the IC50 on pp72^syk (163-265) was 11 µM; at pp72^syk (1-265), 460 µM; on pp70^ZAP (1-259) (setting [1]) it was more than 100 µM; on pp60^src (144-251) it was 410 µM.
